The nature of the series: mn = molality of the nth substance listed, in mol/kg. The settings on record: 101 kPa, Liquid, Buoyancy - hydrostatic balance with magnetic suspension - one sinker.

This is an account of results in the NIST ThermoML archive (doi:10.1021/je700100a).

± gives the expanded uncertainty stated by the source.

For the molecule `[Cl-].[K+]` [potassium chloride] + O, the mass density (usually the mass of a sample divided by its volume) (298.15 K, m1 = 0.0306) stood at 998.491 ± 0.41 kg/m3; the mass density (303.15 K, m1 = 0.0105) is on record as 996.131 ± 0.41 kg/m3; the mass density (303.15 K, m1 = 0.02061) is reported as 996.605 ± 0.41 kg/m3.
